Assay results taken from patent publication US20230248723A1, “PYRROLO[2,3-B]PYRAZINE COMPOUNDS AS CCCDNA INHIBITORS FOR THE TREATMENT OF HEPATITIS B VIRUS (HBV) INFECTION” (Hoffmann-La Roche Inc., priority 2017, published 2023).

System: liver-enriched genes (liver signatures)
Assay: Whole-genome transcriptome microarray on HLC treated with MB-1
Type: cell-based, human
Procedure: FIG. 1: Maturation screen identified a small molecule that enhances maturation of HLC. (A) HLC maturation screening cascade. […] Lane 1-3, MB-1 (5 μM) at 7 d, 24 h, and 2 h, respectively. Lane 4-6, MB-1 (0.5 μM) at 7 d, 24 h, and 2 h, respectively. (C) BioQC liver score analysis of HLC transcriptomes (following treatment with MB-1 for 2 h, 24 h, and 7 day) were compared to those of PHH, HepaRG, and HepG2. (D) Expression of AAT-1a in HLC after 14 day of treatment with MB-1, or 1% DMSO. (E) MB-1-treated HLC support robust HBV infection: HLC (in 96-well plate) were treated with MB-1 (1 μM), or 1% DMSO, for 4 days, then infected with patient-derived HBV (MOI 10, in triplicate). Culture medium was harvested at indicated time points and analyzed for HBsAg.
To fully manifest the potential of HLC as a disease-relevant assay for HBV drug discovery, they have to meet the following criteria: hepatocyte-likeness, scalability, assay robustness, and reproducibility. It is well known that HLC still display immature phenotypes i.e. resemble more fetal than adult, hepatocytes (Baxter et al., 2015; Godoy et al., 2015; Goldring et al., 2017). […]

Compound: O=C(NCc1cccc(F)c1)c1cccc2[nH]c(-c3c(NC[C@@H](O)c4ccccc4)cc[nH]c3=O)nc12 [MB-1]
- number of liver-enriched genes (liver tissue signature) with up-regulated mRNA expression (Gini index >0.7): ~237
- number of up-regulated genes that are highly expressed in the liver (Gini index >0.8): 137
